This note sets out measurements from patent publication US20250353864A1, “INDAZOLE CONTAINING MACROCYCLES AND THEIR USE” (BLOSSOMHILL THERAPEUTICS, INC., priority 2022, published 2025).

Holding throughout (assay type): biochemical
In one experiment the target is CLK4 (Homo sapiens (Human), UniProt Q9HAZ1). Put plainly: Inhibition of CLK4 kinase activity evaluated at Nanosyn (ADP-Glo). To be noted: ADP-Glo luminescence. In outline: (§1)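 ADP-Glo luminescence read-out of ADP produced by each kinase acting on substrate, with ATP added to start the reaction. Buffer: 100 mM HEPES pH 7.5, 5 mM MgCl2, Triton X-100, BSA, DTT, phosphatase inhibitors; DMSO 1%. Inhibition calculated against no-inhibitor and no-enzyme controls.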
On the technique in general: ADP-Glo turns the ADP formed in a reaction into a luminescent signal.

A further experiment has as its target CLK3 (Homo sapiens (Human), UniProt P49761). The experiment is described as follows: Inhibition of CLK3 kinase activity evaluated at Nanosyn (ADP-Glo). The following applies: ADP-Glo luminescence. In outline:
as §1

The next experiment deals with EGFR L858R/T790M mutant (Homo sapiens (Human), UniProt P00533, L858R/T790M). Put plainly: HotSpot radiometric kinase assay, EGFR L858R/T790M mutant. To be noted: 10 μM ATP. In outline: (§2)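 Compounds were preincubated ~20 min with kinase/substrate in pH 7.5 Hepes buffer (MgCl2, EGTA, Brij35, BSA, Na3VO4, DTT, 1% DMSO), then ATP plus 33P-ATP was added to 10 μM final. After 120 min at room temperature, reactions were spotted on P81 filters and washed; IC50 values came from curve fits.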

A further experiment has as its target EGFR Δ746-750 mutant (Homo sapiens (Human), UniProt P00533, DEL746-750). The experiment is described as follows: HotSpot radiometric kinase assay, EGFR Δ746-750 mutant. The following applies: 10 μM ATP. In outline: as §2
Another experiment has as its target CLK2 (Homo sapiens (Human), UniProt P49760). Put plainly: Inhibition of CLK2 kinase activity evaluated at Nanosyn (ADP-Glo). The following applies: ADP-Glo luminescence. Put shortly: as §1
Another experiment deals with EGFR L858R mutant (Homo sapiens (Human), UniProt P00533, L858R). Put plainly: HotSpot radiometric kinase assay, EGFR L858R mutant. The following applies: 10 μM ATP. In outline:
as §2

For experiment [1], the target named is EGFR Δ746-750/C797S mutant (Homo sapiens (Human), UniProt P00533, C797S/DEL746-750). The experiment is described as follows: HotSpot radiometric kinase assay, EGFR Δ746-750/C797S mutant. The following applies: 10 μM ATP. In outline: as §2
Experiment [2] has as its target EGFR L858R/T790M/C797S mutant (Homo sapiens (Human), UniProt P00533, C797S/L858R/T790M). Put plainly: HotSpot radiometric kinase assay, EGFR L858R/T790M/C797S mutant. The following applies: 10 μM ATP. Put shortly:
as §2

The target in another experiment is EGFR (D770_N771insNPG) (Homo sapiens (Human), UniProt P00533, INS770NPG). Put plainly: HotSpot radiometric kinase assay, EGFR (D770_N771insNPG). The following applies: 10 μM ATP, read-out: EGFR (Δ770_N771insNPG) IC50. In outline:
as §2

The next experiment concerns the target CLK1 (Homo sapiens (Human), UniProt P49759). The experiment is described as follows: Inhibition of CLK1 kinase activity evaluated at Nanosyn (ADP-Glo). The following applies: ADP-Glo luminescence. Put shortly: as §1
A further experiment deals with EGFR WT (Homo sapiens (Human), UniProt P00533). Put plainly: HotSpot radiometric kinase assay (Reaction Biology), EGFR WT. To be noted: 10 μM ATP. Put shortly:
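Radiometric filter-binding read-out: incorporated 33P was retained on P81 ion-exchange paper after washing away unbound phosphate. Reactions ran 120 min at room temperature with 10 μM final ATP, following ~20 min compound preincubation in Hepes pH 7.5 buffer containing 1% DMSO. IC50 from fitted curves.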

Chain of EGFR L858R/T790M mutant (P00533 25-1210 T790M/L858R): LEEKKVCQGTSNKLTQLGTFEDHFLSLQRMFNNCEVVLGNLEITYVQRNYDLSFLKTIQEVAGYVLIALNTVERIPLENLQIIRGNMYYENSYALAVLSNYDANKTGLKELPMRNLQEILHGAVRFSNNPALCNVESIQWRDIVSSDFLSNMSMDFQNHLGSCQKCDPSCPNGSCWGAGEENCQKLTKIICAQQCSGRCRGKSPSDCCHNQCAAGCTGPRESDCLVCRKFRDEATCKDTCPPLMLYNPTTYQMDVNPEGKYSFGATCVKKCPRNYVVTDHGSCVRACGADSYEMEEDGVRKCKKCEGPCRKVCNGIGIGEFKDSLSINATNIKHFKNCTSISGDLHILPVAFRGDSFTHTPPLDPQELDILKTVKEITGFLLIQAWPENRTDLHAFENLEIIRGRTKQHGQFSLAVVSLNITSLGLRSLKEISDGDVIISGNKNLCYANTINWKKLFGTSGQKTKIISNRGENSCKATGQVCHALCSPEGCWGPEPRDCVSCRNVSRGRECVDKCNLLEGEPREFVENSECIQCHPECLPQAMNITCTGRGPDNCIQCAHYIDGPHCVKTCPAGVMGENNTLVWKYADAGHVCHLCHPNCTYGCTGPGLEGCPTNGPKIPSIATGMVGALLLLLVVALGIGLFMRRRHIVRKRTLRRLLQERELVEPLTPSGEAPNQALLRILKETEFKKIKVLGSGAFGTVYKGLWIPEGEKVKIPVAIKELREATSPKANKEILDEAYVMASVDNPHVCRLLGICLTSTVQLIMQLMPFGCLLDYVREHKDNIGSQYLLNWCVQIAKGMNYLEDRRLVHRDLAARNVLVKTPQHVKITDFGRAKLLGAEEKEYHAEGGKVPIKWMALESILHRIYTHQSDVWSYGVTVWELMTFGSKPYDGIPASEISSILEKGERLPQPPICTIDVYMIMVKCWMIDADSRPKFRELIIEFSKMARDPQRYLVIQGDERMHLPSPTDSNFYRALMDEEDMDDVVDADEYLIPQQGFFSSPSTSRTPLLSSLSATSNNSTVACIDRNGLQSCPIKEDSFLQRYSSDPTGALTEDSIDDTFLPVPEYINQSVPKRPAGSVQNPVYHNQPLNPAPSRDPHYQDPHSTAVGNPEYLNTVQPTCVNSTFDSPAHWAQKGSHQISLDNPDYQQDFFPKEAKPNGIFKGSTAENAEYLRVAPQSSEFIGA
Chain of CLK4 (Q9HAZ1 whole entry): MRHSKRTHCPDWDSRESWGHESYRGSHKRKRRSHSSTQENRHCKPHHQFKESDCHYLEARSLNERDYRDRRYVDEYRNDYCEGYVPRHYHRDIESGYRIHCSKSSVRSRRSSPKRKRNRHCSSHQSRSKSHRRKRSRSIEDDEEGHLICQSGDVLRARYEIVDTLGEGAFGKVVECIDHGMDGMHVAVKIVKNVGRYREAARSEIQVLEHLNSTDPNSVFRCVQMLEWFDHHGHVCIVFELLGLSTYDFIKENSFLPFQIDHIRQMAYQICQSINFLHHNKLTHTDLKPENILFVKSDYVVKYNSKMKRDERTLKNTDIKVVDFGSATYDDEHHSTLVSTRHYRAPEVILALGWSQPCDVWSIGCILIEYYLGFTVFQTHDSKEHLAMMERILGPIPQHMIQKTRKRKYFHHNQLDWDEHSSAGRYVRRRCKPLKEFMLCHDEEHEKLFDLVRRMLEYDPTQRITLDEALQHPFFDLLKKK
Chain of CLK2 (P49760 whole entry): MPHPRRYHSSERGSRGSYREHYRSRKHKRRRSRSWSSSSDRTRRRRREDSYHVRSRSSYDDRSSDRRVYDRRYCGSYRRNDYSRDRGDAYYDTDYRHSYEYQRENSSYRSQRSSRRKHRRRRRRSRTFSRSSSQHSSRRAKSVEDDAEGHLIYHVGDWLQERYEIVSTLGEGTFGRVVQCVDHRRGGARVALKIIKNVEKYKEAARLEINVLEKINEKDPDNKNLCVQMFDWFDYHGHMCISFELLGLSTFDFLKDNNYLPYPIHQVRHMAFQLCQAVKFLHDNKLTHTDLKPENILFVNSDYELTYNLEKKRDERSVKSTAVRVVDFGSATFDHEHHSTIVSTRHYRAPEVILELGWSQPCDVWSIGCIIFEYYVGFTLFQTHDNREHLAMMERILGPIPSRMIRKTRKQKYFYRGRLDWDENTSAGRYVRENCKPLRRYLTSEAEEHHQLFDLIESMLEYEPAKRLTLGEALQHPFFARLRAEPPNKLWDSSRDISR
Chain of EGFR L858R mutant (P00533 25-1210 L858R): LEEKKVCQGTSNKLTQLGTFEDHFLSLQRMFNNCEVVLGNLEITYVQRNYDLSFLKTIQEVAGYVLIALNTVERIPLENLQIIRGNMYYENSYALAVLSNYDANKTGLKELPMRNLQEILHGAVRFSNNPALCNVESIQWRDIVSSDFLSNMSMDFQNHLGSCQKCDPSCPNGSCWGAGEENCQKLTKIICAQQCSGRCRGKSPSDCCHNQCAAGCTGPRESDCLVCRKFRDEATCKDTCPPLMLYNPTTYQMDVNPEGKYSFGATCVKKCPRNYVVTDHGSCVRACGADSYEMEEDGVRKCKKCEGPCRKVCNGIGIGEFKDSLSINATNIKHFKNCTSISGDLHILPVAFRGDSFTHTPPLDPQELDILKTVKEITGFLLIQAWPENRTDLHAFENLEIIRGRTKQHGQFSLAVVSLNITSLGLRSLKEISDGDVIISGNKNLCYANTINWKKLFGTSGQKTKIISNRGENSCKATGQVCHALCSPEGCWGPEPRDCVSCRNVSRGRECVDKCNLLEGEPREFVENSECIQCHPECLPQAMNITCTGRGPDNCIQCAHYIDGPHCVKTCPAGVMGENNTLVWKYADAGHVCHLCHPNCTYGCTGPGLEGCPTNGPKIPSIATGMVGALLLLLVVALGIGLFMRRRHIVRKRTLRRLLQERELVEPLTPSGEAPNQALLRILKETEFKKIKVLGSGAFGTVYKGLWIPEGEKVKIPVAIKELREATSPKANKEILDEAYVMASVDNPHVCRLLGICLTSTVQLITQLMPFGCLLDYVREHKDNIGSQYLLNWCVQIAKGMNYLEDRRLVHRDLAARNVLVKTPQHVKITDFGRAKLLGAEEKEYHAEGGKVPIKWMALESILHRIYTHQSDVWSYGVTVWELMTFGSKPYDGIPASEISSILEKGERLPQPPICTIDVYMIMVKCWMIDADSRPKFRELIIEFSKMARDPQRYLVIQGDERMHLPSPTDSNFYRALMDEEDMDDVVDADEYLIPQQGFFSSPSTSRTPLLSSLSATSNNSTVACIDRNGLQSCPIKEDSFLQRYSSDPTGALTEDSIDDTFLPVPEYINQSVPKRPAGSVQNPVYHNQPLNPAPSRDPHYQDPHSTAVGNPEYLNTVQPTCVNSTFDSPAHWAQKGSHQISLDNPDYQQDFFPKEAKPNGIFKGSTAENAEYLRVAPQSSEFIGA
Chain of EGFR WT (P00533 25-1210): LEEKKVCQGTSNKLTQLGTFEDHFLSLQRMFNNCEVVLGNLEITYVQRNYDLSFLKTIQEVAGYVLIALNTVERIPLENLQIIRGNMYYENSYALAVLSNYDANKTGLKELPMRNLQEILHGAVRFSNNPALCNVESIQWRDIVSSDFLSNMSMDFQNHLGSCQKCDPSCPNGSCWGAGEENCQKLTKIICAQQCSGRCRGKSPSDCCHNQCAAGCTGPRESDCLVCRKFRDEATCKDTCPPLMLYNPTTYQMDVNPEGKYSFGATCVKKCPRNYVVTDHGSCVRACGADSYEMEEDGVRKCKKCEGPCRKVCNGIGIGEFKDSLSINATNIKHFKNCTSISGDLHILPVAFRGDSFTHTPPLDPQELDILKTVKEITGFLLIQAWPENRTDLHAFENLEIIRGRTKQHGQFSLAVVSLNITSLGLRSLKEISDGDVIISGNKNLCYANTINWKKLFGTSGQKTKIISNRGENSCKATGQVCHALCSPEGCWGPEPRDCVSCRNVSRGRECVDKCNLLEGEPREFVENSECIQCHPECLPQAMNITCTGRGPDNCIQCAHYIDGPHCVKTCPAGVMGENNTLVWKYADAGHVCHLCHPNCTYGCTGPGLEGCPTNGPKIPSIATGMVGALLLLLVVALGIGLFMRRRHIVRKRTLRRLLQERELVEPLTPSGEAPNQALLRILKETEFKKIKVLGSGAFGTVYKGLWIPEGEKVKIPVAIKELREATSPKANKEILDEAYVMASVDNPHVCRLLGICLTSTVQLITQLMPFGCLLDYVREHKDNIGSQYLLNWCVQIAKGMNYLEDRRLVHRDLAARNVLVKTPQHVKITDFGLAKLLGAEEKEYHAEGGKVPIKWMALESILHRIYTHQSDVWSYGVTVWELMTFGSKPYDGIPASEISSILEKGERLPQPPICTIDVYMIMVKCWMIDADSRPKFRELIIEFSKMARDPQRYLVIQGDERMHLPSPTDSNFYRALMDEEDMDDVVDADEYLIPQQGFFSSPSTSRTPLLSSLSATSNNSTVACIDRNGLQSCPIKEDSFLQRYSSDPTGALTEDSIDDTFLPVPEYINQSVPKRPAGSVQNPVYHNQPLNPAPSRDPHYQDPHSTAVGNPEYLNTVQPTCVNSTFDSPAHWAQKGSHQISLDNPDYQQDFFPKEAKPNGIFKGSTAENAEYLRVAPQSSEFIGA
Chain of EGFR Δ746-750 mutant (P00533 other isoform, or with tags, fused parts or gaps del 1-668/del 746-750 limits assumed): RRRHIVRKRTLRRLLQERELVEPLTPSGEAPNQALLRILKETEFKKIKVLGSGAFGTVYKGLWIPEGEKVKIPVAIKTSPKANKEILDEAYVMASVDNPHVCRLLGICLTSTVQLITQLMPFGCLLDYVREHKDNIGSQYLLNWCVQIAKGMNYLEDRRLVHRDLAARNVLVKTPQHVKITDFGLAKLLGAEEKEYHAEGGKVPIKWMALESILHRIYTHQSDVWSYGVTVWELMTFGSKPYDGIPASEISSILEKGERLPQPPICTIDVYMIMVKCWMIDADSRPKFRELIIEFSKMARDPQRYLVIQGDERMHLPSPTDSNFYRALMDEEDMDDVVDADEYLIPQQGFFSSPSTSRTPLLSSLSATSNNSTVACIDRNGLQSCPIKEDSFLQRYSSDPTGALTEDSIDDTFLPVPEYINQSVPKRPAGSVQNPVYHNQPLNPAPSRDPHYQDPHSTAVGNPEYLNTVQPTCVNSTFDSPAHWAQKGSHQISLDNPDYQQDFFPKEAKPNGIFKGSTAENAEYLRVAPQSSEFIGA

Usually IC50 stands for the concentration at which inhibition is half-maximal. On to `CCOc1noc2c1/C=C/c1n[nH]c3ccc(cc13)-c1cnn(C)c1O[C@@H](C)CN(C)C2` [Example 183, (10S,17E)-16-ethoxy-8,10,12-trimethyl-2,8,10,11,12,13-hexahydro-3,5-etheno[1,2]oxazolo[5,4-f]dipyrazolo[3,4-j:4′,3′-n][1,4]oxazacyclopentadecine], for which the IC50 on CLK4 amounted to 1.83 nM; at CLK3 it was 155 nM; at EGFR L858R/T790M mutant it was 0.65 nM; on EGFR Δ746-750 mutant it was 53.8 nM; on CLK2 it was 0.24 nM; on EGFR L858R mutant, 61.5 nM. Also, the IC50 is 17.7 nM in [1]; 1.05 nM in experiment [2]; 534 nM on EGFR (D770_N771insNPG); 0.82 nM on CLK1; 195 nM against EGFR WT.
Turning to `CCn1ncc2c1O[C@@H](C)CN(C)Cc1c(c(OC(C)C)nn1CCO)/C=C/c1n[nH]c3ccc-2cc13` [Example 169, 2-{(10S,17E)-8-ethyl-10,12-dimethyl-16-[(propan-2-yl)oxy]-2,8,10,11,12,13-hexahydro-14H-3,5-ethenotripyrazolo[3,4-f:3′,4′-j:4″,3″- n][1,4]oxazacyclopentadecin-14-yl}ethan-1-ol], the IC50 at CLK4 is 1.13 nM; on CLK3 it was 346 nM; on EGFR L858R/T790M mutant, 0.48 nM; against EGFR Δ746-750 mutant, 3.24 nM; at CLK2 it was 0.49 nM; on EGFR L858R mutant it was 2.01 nM. The IC50 stood at 1.6 nM in [1]; 1.26 nM in experiment [2]; 36.1 nM on EGFR (D770_N771insNPG); 0.47 nM at CLK1; 19.3 nM at EGFR WT.
For `Cc1nn(C)c2c1/C=C/c1n[nH]c3ccc(cc13)-c1cnn(C)c1O[C@@H](C)CN(C)[C@@H]2C` (single isomer, unassigned) [Example 144], the IC50 at CLK4 turned out to be 0.55 nM; on CLK3 it was 168 nM; against EGFR L858R/T790M mutant, 0.41 nM; on EGFR Δ746-750 mutant, 1.88 nM; on CLK2, 0.05 nM; on EGFR L858R mutant, 1.47 nM. The IC50 came to 1.93 nM in [1]; 0.7 nM in experiment [2]; 24.5 nM on EGFR (D770_N771insNPG); 0.21 nM on CLK1; 8.81 nM at EGFR WT.
As for `CCOc1nn(CCO)c2c1/C=C/c1n[nH]c3ccc(cc13)-c1cnn(C)c1OC[C@H](C)N(C1CC1)C2` [Example 198, 2-[(11S,17E)-12-cyclopropyl-16-ethoxy-8,11-dimethyl-2,8,10,11,12,13-hexahydro-14H-3,5-ethenotripyrazolo[3,4-f:3′,4′-j:4″,3″- n][1,4]oxazacyclopentadecin-14-yl]ethan-1-ol], the IC50 was 1.63 nM on CLK4; 1000 nM on CLK3; 0.89 nM against EGFR L858R/T790M mutant; 5.84 nM at EGFR Δ746-750 mutant; 1.61 nM at CLK2; 13.1 nM at EGFR L858R mutant. The IC50 worked out at 1.96 nM in [1]; 0.26 nM in experiment [2]; 47 nM at EGFR (D770_N771insNPG); 0.76 nM at CLK1; 36.8 nM on EGFR WT.
For `COCc1nn(CCO)c2c1/C=C/c1n[nH]c3ccc(cc13)-c1cnn(C)c1O[C@@H](C)CN(C)C2` [Example 261, 2-[(10S,17E)-16-(methoxymethyl)-8,10,12-trimethyl-2,8,10,11,12,13-hexahydro-14H-3,5-ethenotripyrazolo[3,4-f:3′,4′-j:4″,3″-n][1,4]oxazacyclopentadecin-14-yl]ethan-1-ol], the IC50 at CLK4 was found to be 0.44 nM; on CLK3, 209 nM; on EGFR L858R/T790M mutant, 1.92 nM; against EGFR Δ746-750 mutant, 23.5 nM; on CLK2, 0.33 nM; against EGFR L858R mutant it was 21.6 nM. The IC50 is 5.93 nM in experiment [1]; 5.1 nM in [2]; 230 nM at EGFR (D770_N771insNPG); 0.2 nM on CLK1; 93.7 nM on EGFR WT.
With `Cc1c2c(nn1C[C@H](C)O)CN(C)C[C@H](C)Oc1c(cnn1C)-c1ccc3[nH]nc(c3c1)/C=C/2` [Example 124, (2S)-1-[(10S,17E)-8,10,12,16-tetramethyl-2,8,10,11,12,13-hexahydro-15H-3,5-ethenotripyrazolo[3,4-f:3′,4′-j:4″,3″-n][1,4]oxazacyclopentadecin-15-yl]propan-2-ol], the IC50 was 0.37 nM on CLK4; 186 nM at CLK3; 3.32 nM against EGFR L858R/T790M mutant; 18.3 nM against EGFR Δ746-750 mutant; 0.29 nM at CLK2; 18.3 nM on EGFR L858R mutant. Besides, the IC50 in [1] came to 13.9 nM; in [2], 2.32 nM; at EGFR (D770_N771insNPG) it was 140 nM; at CLK1, 0.15 nM; against EGFR WT it was 168 nM.
For the compound `CC(C)Oc1nn(CCO)c2c1/C=C/c1n[nH]c3ccc(cc13)-c1cnn(C)c1O[C@@H](CO)CN(C)C2` [Example 258, 2-{(10R,17E)-10-(hydroxymethyl)-8,12-dimethyl-16-[(propan-2-yl)oxy]-2,8,10,11,12,13-hexahydro-14H-3,5-ethenotripyrazolo[3,4-f:3′,4′-j:4″,3″-n][1,4]oxazacyclopentadecin-14-yl}ethan-1-ol], the IC50 at CLK4 was determined as 1.04 nM; on CLK3, 17.2 nM; on EGFR L858R/T790M mutant, 0.48 nM; on EGFR Δ746-750 mutant it was 1.22 nM; at CLK2, 0.23 nM; against EGFR L858R mutant, 1.56 nM. Further, the IC50 in experiment [1] stood at 1.26 nM; in experiment [2] it was 2.17 nM; at EGFR (D770_N771insNPG), 15.8 nM; at CLK1 it was 0.5 nM; against EGFR WT, 5.72 nM.
Take `CCN1Cc2c(c(OC(C)C)nn2CC(C)=O)/C=C/c2n[nH]c3ccc(cc23)-c2cnn(C)c2O[C@@H](C)C1` [Example 263, 1-{(10S,17E)-12-ethyl-8,10-dimethyl-16-[(propan-2-yl)oxy]-2,8,10,11.12,13-hexahydro-14H-3,5-ethenotripyrazolo[3,4-f:3′,4′-j:4″,3″-n][1,4]oxazacyclopentadecin-14-yl}propan-2-one]: the IC50 turned out to be 1.31 nM at CLK4; 32.7 nM at CLK3; 0.75 nM at EGFR L858R/T790M mutant; 1.28 nM at EGFR Δ746-750 mutant; 0.71 nM on CLK2; 3.97 nM at EGFR L858R mutant. For the same compound, the IC50 in experiment [1] is 1.79 nM; in experiment [2], 0.5 nM; on EGFR (D770_N771insNPG) it was 18.2 nM; at CLK1, 0.64 nM; against EGFR WT it was 6.94 nM.
Turning to `C[C@H]1CN(C)Cc2c(c(OCC(F)(F)F)nn2C)/C=C/c2n[nH]c3ccc(cc23)-c2cnn(C)c2O1` [Example 162, (10S,17E)-8,10,12,14-tetramethyl-16-(2,2,2-trifluoroethoxy)-2,10,11,12,13,14-hexahydro-8H-3,5-ethenotripyrazolo[3,4-f:3′,4′-j:4″,3″-n][1,4]oxazacyclopentadecine], the IC50 at CLK4 came to 0.25 nM; at CLK3, 784 nM; against EGFR L858R/T790M mutant it was 1.4 nM; against EGFR Δ746-750 mutant it was 30.5 nM; at CLK2, 0.07 nM; against EGFR L858R mutant it was 47.4 nM. For the same compound, the IC50 was 33.5 nM in experiment [1]; 0.9 nM in [2]; 523 nM at EGFR (D770_N771insNPG); 0.11 nM on CLK1; 238 nM against EGFR WT.
As to `Cc1nn(C)c2c1/C=C/c1n[nH]c3ccc(cc13)-c1cnn(C)c1OCCN1CC[C@@H](O2)C1=O` [Example 109, (10R,15E)-3,12,14-trimethyl-5,6,9,10,12,18-hexahydro-3H,8H-19,21-etheno-7,10-methanotripyrazolo[3,4-i:3′,4′-m:4″,3″-q][1,8,4]dioxazacyclooctadecin-24-one], the IC50 was found to be 0.85 nM on CLK4; 2 nM on CLK3; 15.9 nM on EGFR L858R/T790M mutant; 38 nM at EGFR Δ746-750 mutant; 0.09 nM on CLK2; 165 nM against EGFR L858R mutant. For the same compound, the IC50 turned out to be 152 nM in experiment [1]; 47.1 nM in experiment [2]; 298 nM on EGFR (D770_N771insNPG); 0.46 nM at CLK1; 856 nM against EGFR WT.
